The source of these data is article PMC6368337, “GluClR-mediated inhibitory postsynaptic currents reveal targets for ivermectin and potential mechanisms of ivermectin resistance” (PLoS Pathogens, 2019).

The structures appear in SMILES notation. Bounds are passed on as bounds.

The term EC50 denotes the concentration at which the effect is half-maximal.

The target in one data set is αβ (1:1) GluClRs (Haemonchus contortus, UniProt O46124+P91730). The data set can be described thus: Two-electrode voltage clamp in oocytes, αβ (1:1) GluClRs. It counts as cell-based, H. contortus. Here is the method:
(§1) cDNAs encoding the α (avr-14b) (pcDNA 3.1+) or β (pUNIV) GluClR subunits of H. contortus were nuclear injected into oocytes (NASCO, WI USA) or transfected into HEK293AD cells (CellBank Australia) using a calcium phosphate-DNA co-precipitate method. Synapse formation between neurons and HEK293 cells was promoted by co-transfecting neuroligin 2A or 1B and the cDNA encoding CD4 surface antigen was also added to the transfection mixture so as to identify transfected cells. The oocytes and HEK cells were used for experiments 2–3 days after the introduction of the cDNAs. All experiments were done at room temperature (22 ± 1°C).
Xenopus laevis oocytes were harvested by surgical incision. The oocytes were then defolliculated with 1.5 mg/ml collagenase for 2 hours. Free oocytes were rinsed with calcium-free OR-2 solution containing (in mM) 82.5 NaCl, 2 KCl, 1 MgCl2, 5 HEPES, pH 7.4 and mature stage V or VI oocytes were isolated for experiments. The DNAs coding for α and β subunits were nuclear injected into the oocytes using a Nanoliter 2000 microinjector (WPI Inc) at a ratio of (α:β), 1:0, 0:1, 1:1 and 1:50. The total amount of injected DNA in all combinations was 400 ng ml^−1, including the 1:50 (α:β) combination (8 ng of DNA encoding the α and 392 ng of DNA encoding β subunits). Injected oocytes were incubated in ND96 storage solution (in mM) 96 NaCl, 2 KCl, 1 MgCl2.6H2O, 1.8 CaCl2, 5 HEPES, 50 μg ml^−1 gentamicin, 2.5 sodium pyruvate, 0.5 theophylline, pH 7.4 at 16°C for 2–3 days before experiment.
For the two-electrode voltage clamp recordings, each oocyte was secured in a cell bath that was continually perfused with ND96 recording solution (ND96 storage solution without pyruvate, theophylline and gentamicin). […] The two microelectrodes contained 3 M KCl and had resistances of 0.2–2 MΩ. Recordings were done using Clampex 10.2 software (Molecular Devices) at a clamped voltage of −40 mV. Currents were low-pass filtered at 200 Hz, sampled at 2 kHz using a Gene Clamp 500B amplifier and digitised by a Digidata 1440A interface. The IVM (IVM B1a) concentration-response experiments were standardised by using an application protocol that consisted of applying increasing concentrations of IVM for, respectively, 3 min, 3 min, 3 min, 2 min, 1 min, 1 min and 0.5 min.
Group data were analysed in SigmaPlot 13.0 using one-way ANOVAs, where p < 0.05 was taken as the significance threshold and expressed as mean ± SEM. Tests for normally distributed data are built into the SigmaPlot software. Confocal images were captured and analysed with Zen 2012 SP2 (Zeiss) software. Oocyte concentration-response data were fit to a Hill equation to obtain an EC50 and Hill co-efficient for each oocyte recording. […] Single channel recordings were analysed in QuB software. […]
A general note: Two-electrode voltage clamp is typically applied to oocytes expressing channels or transporters.

The target of the next data set is β GluClRs (Haemonchus contortus, UniProt P91730). The data set can be described thus: Two-electrode voltage clamp in oocytes, β GluClRs. It counts as cell-based, H. contortus. The note with it: EC50, oocytes, −40 mV. Here is the method: as §1
β GluClRs, sequence (P91730 19-432): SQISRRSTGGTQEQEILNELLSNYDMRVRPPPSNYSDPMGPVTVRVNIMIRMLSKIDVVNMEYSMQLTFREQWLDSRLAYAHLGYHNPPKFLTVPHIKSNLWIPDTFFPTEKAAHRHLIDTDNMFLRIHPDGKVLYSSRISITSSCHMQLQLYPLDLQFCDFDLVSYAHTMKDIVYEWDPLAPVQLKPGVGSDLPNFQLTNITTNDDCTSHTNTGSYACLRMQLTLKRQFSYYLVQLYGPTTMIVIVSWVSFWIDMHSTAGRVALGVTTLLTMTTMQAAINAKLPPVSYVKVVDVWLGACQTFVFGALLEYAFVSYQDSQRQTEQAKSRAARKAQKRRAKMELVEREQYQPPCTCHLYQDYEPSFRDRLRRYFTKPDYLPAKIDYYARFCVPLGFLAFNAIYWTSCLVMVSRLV
Xenopus laevis oocytes were harvested by surgical incision. The oocytes were then defolliculated with 1.5 mg/ml collagenase for 2 hours. Free oocytes were rinsed with calcium-free OR-2 solution containing (in mM) 82.5 NaCl, 2 KCl, 1 MgCl2, 5 HEPES, pH 7.4 and mature stage V or VI oocytes were isolated for experiments. The DNAs coding for α and β subunits were nuclear injected into the oocytes using a Nanoliter 2000 microinjector (WPI Inc) at a ratio of (α:β), 1:0, 0:1, 1:1 and 1:50. […]
Group data were analysed in SigmaPlot 13.0 using one-way ANOVAs, where p < 0.05 was taken as the significance threshold and expressed as mean ± SEM. […] Confocal images were captured and analysed with Zen 2012 SP2 (Zeiss) software. […] Single channel recordings were analysed in QuB software. […]

The subject of data set [1] is Untransfected HEK293 cells. The data set can be described thus: Fluorescence recovery after photobleaching (FRAP), lateral membrane diffusion. The note with it: in cell membrane. The method, then:
The second experiment was aimed at determining the lateral membrane diffusion properties of IVM using the fluorescence recovery after photobleaching (FRAP) technique. After a 30-min equilibration time, 5 cells were monitored for fluorescence recovery within a bleached circular patch of membrane of 3.7 μm diameter (Fig 8C). Any bleaching and recovery of the surrounding area of the cell was measured, using a similar circular patch and used to correct the recovery rate of the membrane delineated by the bleached area. We also noted that the recovery reached 98 ± 2% of control. The time constant (τ) for recovery of 1.3 minutes was used to calculate the diffusion coefficient (D), using the radius (r) of the bleached patch, according to D = r^2/4τ. The calculated value of D was 1.1 x 10^−2 μm^2s^−1. Over the course of 1 s, the IVM-bdpy probe would traverse 0.2 μm along the membrane surface (lateral diffusion rate of 0.2 μms^−1). […] We infer that this slow lateral diffusion rate coupled to membrane partitioning are the major contributors to local increases of IVM around its target binding sites and the slow quasi-irreversible actions of IVM at GluClRs.
Membrane partitioning and FRAP experiments were performed on an LSM 710 inverted 2-photon confocal microscope equipped with a 40X water immersion objective lens (1.2 NA/280 μM WD/0.208 μM/pixel and a GFP/Alexa 488 filter set. Untransfected HEK293 cells at a confluency of 50–75% were plated onto 35-mm glass bottom dishes one day prior to experiments. The IVM-bdpy fluorophore was dissolved in 100% DMSO and stored at ‐20°C at a concentration of 24 mM.
A Mai Tai eHP 2-photon laser/760-1040 nm was used as an excitation source (power at 920 nm) for the FRAP experiments. The laser and bleaching power were set to 7% and 75% respectively. Membrane partitioning images were taken for 35 min at 0.5 Hz after replacing the cell medium (extracellular solution) with one containing the IVM-bdpy probe at a concentration of 500 nM. FRAP images were taken at a frequency of 0.5 Hz for 10 min after a 30 min equilibration period in 500 nM IVM-bdpy.

αβ (1:1) GluClRs, sequence (P91730 19-432): as above
αβ (1:1) GluClRs, sequence (O46124 entry or part of it): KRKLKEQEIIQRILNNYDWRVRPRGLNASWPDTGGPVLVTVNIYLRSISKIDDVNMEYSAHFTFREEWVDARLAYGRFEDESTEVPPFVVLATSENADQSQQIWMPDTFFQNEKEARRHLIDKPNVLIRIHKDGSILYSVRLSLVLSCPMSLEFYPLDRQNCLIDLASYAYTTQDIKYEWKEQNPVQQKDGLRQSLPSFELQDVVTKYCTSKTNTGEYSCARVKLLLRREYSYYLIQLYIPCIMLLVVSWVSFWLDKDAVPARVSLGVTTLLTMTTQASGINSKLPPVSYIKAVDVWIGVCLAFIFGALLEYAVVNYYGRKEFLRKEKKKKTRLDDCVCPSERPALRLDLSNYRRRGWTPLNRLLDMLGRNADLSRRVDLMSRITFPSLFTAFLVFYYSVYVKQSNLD

For `CC[C@H](C)[C@H]1O[C@]2(CC[C@@H]1C)C[C@@H]1C[C@@H](C/C=C(\C)[C@@H](O[C@H]3C[C@H](OC)[C@@H](O[C@H]4C[C@H](OC)[C@@H](O)[C@H](C)O4)[C@H](C)O3)[C@@H](C)/C=C/C=C3\CO[C@@H]4[C@H](O)C(C)=C[C@@H](C(=O)O1)[C@]34O)O2` [IVM, Ivermectin], the EC50 on αβ (1:1) GluClRs (EC50, oocytes, cDNA injection ratio α:β 1:1, −40 mV) was 0.086 ± 0.014 µM; on β GluClRs, over 10 µM. Besides, the Hill co-efficient at αβ (1:1) GluClRs (oocytes, α:β 1:1, −40 mV) is recorded as 1.0 ± 0.1. Further, the Emax on αβ (1:1) GluClRs (read-out: maximal response, % of saturating glutamate response) stood at 26%. Also, in data set [1], the lateral diffusion rate is recorded as 0.2 μms^−1.
